Measurements taken from patent US20120238487A1, “POLYMER COMPOSITION USEFUL AS A PHARMACEUTICAL CARRIER” (ROBERT GORDON UNIVERSITY, priority 2009, published 2012).
Converted amounts (≈) assume the structure as drawn. Read-outs that look alike come from different tables or passages of the source.

Assays:
[1] = assay type: physicochemical
Protocol: Polymer solutions of 1 […] 6 mgmL^-1 were made up in deionised water and probe sonicated for 10 mins to ensure homogeneity. […] The drug loading capacity of the self assemblies was determined using high performance liquid chromatography (HPLC). […] The samples were diluted with mobile phase and 20 μl was injected onto the column, the resultant peak at 7 mins was analysed.

[2] = assay type: physicochemical; remark: listed apart in the source
Protocol: Polymer solutions of 1 […] 6 mgmL^-1 were made up in deionised water and probe sonicated for 10 mins to ensure homogeneity. […] A reverse phase Phenomenex C18 250 mm×46 mm×5 μm HPLC column was used with flow rate of 1 mlmin^-1 of the mobile phase (45:55 acetonitrile:45 mM potassium dihydrogen phosphate made up in water and pH adjusted to pH3 with orthophosphoric acid) in an isocratic mode.

[3] = assay type: physicochemical; remark: listed apart in the source
Protocol: (§1) Polymer solutions of 1 mgmL^−1, 3 mgmL^−1 and 6 mgmL^−1 were made up in deionised water and probe sonicated for 10 mins to ensure homogeneity. The hydrophobic drug was added in 1:1, 5:1 and 10:1 drug:excipient ratios and the drug-polymer solutions were probe sonicated for a further 10 mins to ensure maximum encapsulation was achieved. After cooling to room temperature, the solutions were filtered using 0.45 μm GDX PVDF syringe filters to ensure any excess unencapsulated propofol was removed.
A reverse phase Zorbax ODS 250 mm×46 mm×5 […] HPLC column was used with flow rate of 1 mlmin^−1 of the mobile phase (40:3:57 methanol:acetonitrile:water) in an isocratic mode. […] The samples were diluted with mobile phase and 20 μl was injected onto the column, the resultant peak at 20 mins was analysed. The drug content was determined by comparing to a calibration carried out on etoposide dissolved in methanol (31.3-500 μgmL^−1).

HEK 293 cells = test: MTT assay on HEK 293 cells; assay type: cell-based, Human; settings: for IC50: Homo sapiens
Protocol: The safety profile of various drugs and nano-aggregates of the drugs and polymers were investigated using the standard colorimetric MTT (3-(4,5-Dimethylthiazol-2-yl)-2,5-diphenyltetrazolium bromide) assay.
An MTT assay was carried out using Caco-2 and HEK cells. Caco-2 cells were cultured as previously described. HEK cells were cultured in Dulbecco's minimum essential medium (DMEM) containing 10% FBS and 1% penicillin streptomycin (Penstrep).
Polymeric self-assemblies were formed by probe sonicating the polymers in sterile water (5 mgmL^−1). The polymer stock solutions were diluted to 0.005 mgmL^−1 with media. Etoposide stock solution (20 mgmL^−1) was prepared by diluting the drug in DMSO. The formulations were prepared by addition of drug into 0.005 mgmL^−1 polymer solution.

[4] = Aqueous solubility of model hydrophobic drugs; assay type: physicochemical
Caco-2 cells = test: MTT assay on Caco-2 cells; assay type: cell-based
Protocol: The cytotoxicity of the modified PAA polymers was determined using the MTT assay model. Caco-2 cells were cultured in minimum essential medium (MEM) containing 10% foetal bovine serum (FBS), 1% L-glutamine and 1% non essential amino acids (NEAA).
A 10 mgmL^−1 polymer solution was prepared using sterile water as the diluent. The solution was further diluted with media to form a 0.5 mgmL^−1 stock solution. From the stock solution nine dilutions (0.2-1×10^−4 mgmL^−1) were made using media as the diluent.
Caco-2 cells (200 μL, 10000 cells/well) in exponential growth phases were seeded into a 96-well flat bottomed plate and incubated for 24 h at 37° C. with 5% CO2. The media was replaced with increasing polymer concentrations (0.5-1×10^−4 mgmL^−1) as prepared above. Media and Triton X (1:5 PBS) were the negative and positive controls respectively. The plate was incubated as before. After 24 h the polymer solutions were removed and replaced with fresh media. […] The remaining purple formazan complexes were dissolved in DMSO (200 μL) and L-glycine buffer (25 mL, made up of 3.75 g glycine and 2.93 g NaCl made up in 500 mL and pH adjusted to pH 10.5) and the absorbance of the plates was read at 570 nm using a microplate reader (Ascend Lab-Systems, UK). Percentage cell viability was calculated relative to the positive and negative controls. […]

[5] = cited from earlier work
[6] = Drug loading capacity: solubilisation of prednisolone (HPLC); assay type: physicochemical
[7] = assay type: physicochemical; remark: listed apart in the source
Protocol: as §1
The BNIPDaoct content in self assemblies was carried out using reverse phase Zorbax ODS 250 mm×46 mm×5 […] HPLC column was used with flow rate of 1 mlmin^−1 of the mobile phase (55:45 buffer:acteonitrile) in an isocratic mode. The buffer was made up of 0.4 g octane sulfonic acid and anhydrous sodium acetate made up to 200 ml with deionised water, the solution was pH adjusted to pH4.5. The column eluent was monitored using a fluorescent Detector. The samples were diluted with mobile phase and 20 μl was injected onto the column, the resultant peak at 10 mins was analysed. A calibration was carried out by dissolving BNIPDaoct in DMSO:water (50:50 v/v) (39-625 μgmL^−1).

In the case of “5-Dimethylamino-1-naphthalenesulfonyl-PAA [Dansyl5]”, the “maximum concentration of propofol solubilised” value [1] is reported as 22.4 mgmL^−1.

For “5-Dimethylamino-1-naphthalenesulfonyl-PAA [Dansyl10]”, the “Increase from aqueous solubility” value [2] was 557 Fold and the “Concentration of Etoposide solubilised” value [3] was 1.890 (0.011) mgmL^−1.

In the case of `O=C1c2cccc3cccc(c23)C(=O)N1CCCNCCCCCCCCNCCCN1C(=O)c2cccc3cccc(c23)C1=O` [BNIPDaoct, Bisnahthalimidopropyldiaminooctane], the “IC50 (n = 3 ± SD)” value (HEK 293 cells; HEK 293 cells, IC50 of the polymer was used in the formulations) is reported as 0.00496 (0.00005) mgmL^−1 and the “aqueous solubility (in words)” value [4] is reported as “negligible”.

With `COc1cc([C@@H]2c3cc4c(cc3[C@@H](O[C@@H]3O[C@@H]5CO[C@@H](C)O[C@H]5[C@H](O)[C@H]3O)[C@H]3COC(=O)[C@H]23)OCO4)cc(OC)c1O` [Etoposide] the IC50 (HEK 293 cells; HEK293, read-out: IC50 (n = 3 ± SD), HEK 293 cells, IC50 of the polymer was used in the formulations) was 2.48 µg/mL (≈ 4.21 µM), the IC50 (HEK 293 cells; HEK293, IC90 of the polymer used in the formulations (5 μgmL^−1), read-out: IC50 on HEK 293 cells) was 2.5 µg/mL (≈ 4.25 µM) and the IC50 (Caco-2 cells; Homo sapiens, Caco-2, read-out: IC50 on Caco-2 cells) was 190 µg/mL (≈ 323 µM). The aqueous solubility ([5]; 37° C.) was 148 to 153 µg/mL and the aqueous solubility ([5]; value used for fold increase) was 0.15 mgmL^−1.

In the case of `COC1=CC(=O)C[C@@H](C)[C@]12Oc1c(Cl)c(OC)cc(OC)c1C2=O` [Griseofulvin, (2S)-trans-7-chloro-2′,4,6-trimethoxy 6′-methylspiro(benzofuran-2[3H],1′-[2]cyclohexene)3,4′-dione], the aqueous solubility ([5]; 25° C.) is given as 30 µg/mL (≈ 85 µM) and the aqueous solubility ([5]; value used for fold increase) is given as 0.03 mgmL^−1.

For `CC(C)c1cccc(C(C)C)c1O` [Propofol, 2,6-diisopropylphenol], the aqueous solubility ([5]; 25° C.) is given as 100 µg/mL (≈ 561 µM) and the aqueous solubility ([5]; value used for fold increase) is given as 0.1 mgmL^−1.

In the case of Cholesterol-PAA [Ch5], the “Number of fold more cytotoxic compared to IC50 of PAA” value (Caco-2 cells) is reported as −1.61, the “maximum concentration of prednisolone solubilised” value [6] is reported as 7.05 mgmL^−1 and the “Concentration of Griseofulvin solubilised” value [2] is reported as 1.2 mgmL^−1. The “Excipient:Drug Ratio after solubilisation” value (shortened to “Excipient:Drug Ratio”) [2] was 5.00, the “Increase from aqueous solubility” value [2] was 40 Fold and the “Concentration of Etoposide solubilised” value [3] was 1.020 (0.040) mgmL^−1. The “Excipient:Drug Ratio” value [3] was 5.88, the “Increase from aqueous solubility” value [3] was 7 Fold and the “Concentration of BNIPDaoct solubilised” value [7] was 0.3 mgmL^−1. The “Excipient:Drug Ratio” value [7] was 3.33.
